Assay results reported in US20030119733A1, “Compositions and methods for inhibiting hepatocyte invasion by malarial sporozoites” (New York University, priority 1992, published 2003).

Assays:
[1] = test system: Vivax-2 binding to sulfatide; assay: Inhibition of binding of Vivax-2 to sulfatide; design: species or system P. vivax
Procedure: (§1) Solid phase binding assays: Thirty μl of lipids or steroids dissolved in methanol (20-250 μg/ml) were dried into wells of microassay plates (Cat.# 3911—Falcon—Oxnard, Calif.). The plates were then blocked with 1% BSA/PBS pH 7.4 (BSA/PBS) for 30 minutes. Wells were incubated with recombinant protein (or with parasite extract) in PBS/BSA for 1 hour, washed 3 times with BSA/PBS, incubated for 1 hour with monoclonal antibodies 2F2 or 2A10 in BSA/PBS, washed 3 times, and then incubated with (10^5 cpm/well) ^125I protein A (Amersham Corp., Arlington Hts., Ill.). In the case of the P. berghei CS protein, wells were incubated with ^125I labelled mAb 3D11. Wells were washed again and the bound radioactive protein was counted in an LKB gamma-counter (model #1260, Pharmacia, Inc., Gaithersburg, Md.). For inhibition assays, the recombinant proteins were mixed with dilutions of the various polymers in BSA/PBS, the mixture was loaded into the wells of the microtiter plates, and the binding assay performed as above. See also, Roberts, et al. J. Biol. Chem. 260:9405-9411, 1985.

[2] = test system: Vivax-2 binding to cholesterol-sulfate; assay: Inhibition of binding of Vivax-2 to cholesterol-sulfate; design: species or system P. vivax
Procedure: as §1

P. berghei sporozoites = assay: Infection assay of HepG2 cells with polymers; assay type: cell-based
Procedure: Infection assay: Semiconfluent monolayers of HepG2 cells were grown in 10% FCS/MEM on 8 chamber slides (#4808 Lab-tek -Naperville, Ill.) for 24 hours prior to each experiment. Sporozoites were pre-incubated in media alone or with the various polymers for 15 minutes at 4° C. 5×10^4 sporozoites, in a volume of 10 μl, were added per chamber. After 4 hours of incubation at 37° C., the medium containing the sporozoites was gently aspirated, and 0.5 ml MEM/10% FCS was added. Fresh medium was added at 18 hours and 28 hours, and then cells were fixed with methanol containing 0.3% H2O2 at 48 hours. After fixation, the wells were blocked with 10% FCS/PBS and were incubated with 10 μg/ml of mAb 2E6. Binding of the mAb was detected with a polyclonal goat anti-mouse Ig conjugated to horseradish peroxidase. […] The parasites in each well are counted under a 40× light microscope objective.
The cells were fixed and stained with mAb 2E6, followed by goat-anti-mouse linked to horseradish peroxidase. Numbers represent schizonts counted/20 fields under 40× magnification in a light microscope.

[3] = target: T1, P.berghei CS protein binding to sulfatide (Plasmodium berghei, UniProt P06915); assay: Inhibition of binding of P.berghei CS protein to sulfatide
T1 construct: as well as the native P. berghei CS protein; endogenous in cells; host or cells: P. berghei sporozoites (extract, 35,000 sporozoite equivalents/well)
Procedure: as §1

[4] = test system: binding of CSFZ(Cys) to HepG2 cells; assay: Inhibition of CS binding to HepG2 cells by glycosaminoglycans; design: species or system human; settings: preincubated with 5 μg/ml CSFZ(Cys); FIG. 9
Procedure: 10^5 HepG2 cells were deposited in 96-well Removawell tissue culture plates and allowed to grow overnight in MEM (Gibco) containing 10% FCS, 1 mM L-glutamine (Gibco), 3 mg/ml glucose (Sigma) and 1× non-essential amino acids (Gibco). The HepG2 cells were fixed with 4% paraformaldehyde in TBS (50 mM Tris-HCl, pH 7.5, 137 mM NaCl, 2 mM KCl), were washed 3 times with TBS, and were stored at 4° C. in BSA/TBS until use. CSFZ(Cys) at 5 μg/ml was incubated with increasing amounts of the presumed inhibitors at 37° C. for 15 min. Fifty μl of these mixtures were added to the cells, incubated for 1 hr at 37° C., washed 3× with TBS/0.05% Tween and then sequentially incubated with 50 μl of mAb 2A10 at a concentration of 10 μg/ml in TBS/BSA buffer for 30 min at 37° C., and 1:5000 dilution of goat anti-mouse IgG conjugated to alkaline phosphatase (Boehringer) for 30 minutes. […] After 15 minutes, the fluorescence was measured in a Fluoroskan II plate reader (ICN).
Proteoglycans were preincubated with 5 μg/ml of CSFZ(Cys) and then were added to paraformaldehyde-fixed HepG2 cells. […] Each point represents the mean of triplicates. Percent inhibition was calculated by comparison to CSFZ(Cys) preincubated in medium alone.

[5] = target: hepatocyte plasma membrane receptor for the circumsporozoite protein on human hepatocytes and HepG2; assay: competition: fixed HepG2 cells preincubated with peptide, washed, then CSFZ (Cys) 2.5 µg/ml (competitor); cell ELISA

Molecule: dextran-sulfate
- % INHIBITION ([1]; inhibitor 1 μg/ml): 19%
- % INHIBITION ([1]; inhibitor 10 μg/ml): 70.2%
- % INHIBITION ([2]; inhibitor 1 μg/ml): 12.2%
- % INHIBITION ([2]; inhibitor 10 μg/ml): 21.1%
- % INHIBITION ([2]; inhibitor 100 μg/ml): 25.6%
- % INHIBITION ([2]; inhibitor 1 mg/ml): 33%
- % INHIBITION ([2]; inhibitor 10 mg/ml): 40.5%
- % INHIBITION ([2]; inhibitor 10 mg/ml, listed as dextran-sulfate): less than 50%
- development of the liver stages (P. berghei sporozoites; added after 4 hours of contact, after invasion): not affected
- invasion of hepatocytes by sporozoites in vitro (P. berghei sporozoites; no conditions given): inhibited
- effect on sporozoite invasion (P. berghei sporozoites; present during invasion, 5-50 μg/ml): inhibited invasion in a dose-dependent fashion
- % INHIBITION ([3]; inhibitor 1 μg/ml): 31.2%
- % INHIBITION ([3]; inhibitor 10 μg/ml): 63%
- % INHIBITION ([3]; inhibitor 100 μg/ml): 79%
- inhibition of CS binding to HepG2 cells [4]: inhibited

Molecule: CGNGIQVRIKPGSANKPKDE [Pf2]
- IC50 [5]: 75 µg/mL
